System: Sprague-Dawley rats
Test: Rat EEG assay (wake, REM, non-REM states)
Format: in vivo
Conditions: for number of wake and non-REM sleep bouts / wake bout duration: hourly bins, EEG; for wake promotion: male Sprague-Dawley rats, dosed in middle of inactive period, first 6 hours post-dosing; for time spent in REM sleep / time spent in non-REM sleep / time spent in wake: relative to vehicle treated animals, 6 hour recording; for normalized power in the 40-60 Hz range (EEG spectral analysis): wake EEG spectra, shift to higher frequencies
Method: The rat EEG assay was designed to measure electrical signals from the brain as a proxy for in vivo biological activity at the H3 receptor.
Specifically, animals were housed in a temperature-controlled recording room under a 12 hour/12 hour light/dark cycle, with food and water available ad libitum. Eight male Sprague-Dawley rats were implanted with chronic recording devices for continuous recordings of electroencephalograph (EEG) via telemetry (Data Sciences Inc). A repeated measures design was employed in which each rat received eight separate dosings of the compound being tested with a minimum of 3 days between doses. […] EEG data were scored visually in 10 second epochs for wake, REM, and non-REM states. Scored data were analyzed and expressed as time spent in each state per hour. Cumulative time spent in wake, non-REM, and REM states were calculated for the 6 hour recording period. To determine whether any of the pharmacological treatments affected the consolidation of behavioral states, the duration and number of bouts for each state were calculated in hourly bins. A “bout” consisted of a minimum of two consecutive 10-second epochs of a given state and ended with any single state change epoch. The EEG spectra during wake and non-REM sleep were analyzed offline with a fast Fourier transform algorithm (NeuroScore software, Data Sciences Inc) on all epochs without a visually detectable artifact. Wake EEG spectra were analyzed in 1 Hz bins. Data were analyzed using two-way repeated-measures ANOVA.
For both compounds, there was an increase in the time spent in wake, a decrease in the time spent in non-REM sleep, and no change in the time spent in REM sleep relative to vehicle treated animals.

c1cn2cc(-c3ccc4c(c3)nc3n4CCN4CCCC[C@@H]4C3)ccc2n1 (single isomer, unassigned) [Compound 48]
number of wake and non-REM sleep bouts: decrease | wake bout duration: increase | wake promotion: wake promoting | time spent in REM sleep: no change | time spent in non-REM sleep: decrease | time spent in wake: increase | normalized power in the 40-60 Hz range (EEG spectral analysis): increase

c1cn2cc(-c3ccc4c(c3)nc3n4CCCN(C4CCC4)CC3)ccc2n1 [Compound 59, 3-cyclobutyl-10-(imidazo[1,2-a]pyridin-6-yl)-1,2,3,4,5,6-hexahydrobenzo[4,5]imidazo[1,2-a][1,5]diazocine]
number of wake and non-REM sleep bouts: decrease | wake bout duration: increase | wake promotion: wake promoting | time spent in REM sleep: no change | time spent in non-REM sleep: decrease | time spent in wake: increase | normalized power in the 40-60 Hz range (EEG spectral analysis): increase

From patent US20120172350A1, “HISTAMINE H3 INVERSE AGONISTS AND ANTAGONISTS AND METHODS OF USE THEREOF” (SUNOVION PHARMACEUTICALS INC., priority 2009, published 2012)
